{"source": "ChEMBL document CHEMBL5241120", "about": "“Insights into the medicinal chemistry of heterocycles integrated with a pyrazolo[1,5-a]pyrimidine scaffold” (RSC Med Chem, 2022)", "key": {"SiHa": {"tested_on": "SiHa", "experiment": "Cytotoxicity against human SiHa cells by MTT assay", "assay_type": "functional, cell-based"}, "HeLa": {"tested_on": "HeLa", "experiment": "Cytotoxicity against human HeLa cells by MTT assay", "assay_type": "functional, cell-based"}, "HepG2": {"tested_on": "HepG2", "experiment": "Cytotoxicity against human HepG2 cells by MTT assay", "assay_type": "functional, cell-based"}, "MCF7": {"tested_on": "MCF7", "experiment": "Cytotoxicity against human MCF7 cells by MTT assay", "assay_type": "functional, cell-based"}, "HCT-116": {"tested_on": "HCT-116", "experiment": "Cytotoxicity against human HCT-116 cells by MTT assay", "assay_type": "functional, cell-based"}, "[1]": {"tested_on": "Panel NCI-60 (60 carcinoma cell lines)", "experiment": "Cytotoxicity against human Panel NCI-60 (60 carcinoma cell lines)", "assay_type": "functional", "set-up": "concentration or dose not given beside the values"}, "Escherichia coli": {"tested_on": "Escherichia coli", "experiment": "Antibacterial activity against Escherichia coli assessed as zone of inhibition", "assay_type": "functional"}, "Bacillus subtilis": {"tested_on": "Bacillus subtilis", "experiment": "Antibacterial activity against Bacillus subtilis assessed as zone of inhibition", "assay_type": "functional"}, "Staphylococcus aureus": {"tested_on": "Staphylococcus aureus", "experiment": "Antibacterial activity against Staphylococcus aureus assessed as zone of inhibition", "assay_type": "functional"}, "Pseudomonas aeruginosa": {"tested_on": "Pseudomonas aeruginosa", "experiment": "Antibacterial activity against Pseudomonas aeruginosa assessed as zone of inhibition", "assay_type": "functional"}}, "note": "pIC50: −log10 of the molar value.", "data": [{"smiles": "O=C(c1cc(-c2ccc([N+](=O)[O-])cc2)n2nc(-c3ccccc3)cc2n1)N1CCN(C(=O)c2ccccc2NCc2cccc3c2OCO3)CC1", "values": [{"measurement": "pIC50", "setting": "SiHa", "value": 5.70}, {"measurement": "pIC50", "setting": "HeLa", "value": 5.70}]}, {"smiles": "O=C(Nc1ccccc1-c1ccnc2c(C(=O)NCc3ccc(F)cc3)cnn12)c1ccc(Cl)c(Cl)c1", "values": [{"measurement": "pIC50", "setting": "HeLa", "value": 5.02}]}, {"smiles": "N#Cc1c(-c2ccccc2)nc2c(/N=N/c3cccc(C(F)(F)F)c3)c(N)nn2c1O", "values": [{"measurement": "IC50", "setting": "HepG2", "value": 2.41, "unit": "µg/mL"}, {"measurement": "IC50", "setting": "MCF7", "value": 2.09, "unit": "µg/mL"}, {"measurement": "IC50", "setting": "HCT-116", "value": 2.39, "unit": "µg/mL"}]}, {"smiles": "COc1ccc(Nc2nn3c(-c4ccccc4)cc(-c4ccccc4)nc3c2C(=O)Nc2ccccc2)c(OC)c1", "values": [{"measurement": "Activity", "setting": "[1]", "value": 0.5, "unit": "%"}]}, {"smiles": "Cc1cc(-n2ncc3c(=O)n(-c4ccccc4)cnc32)n2ncc(C#N)c2n1", "values": [{"measurement": "inhibition zone (IZ)", "setting": "Escherichia coli", "value": 13.1, "unit": "mm"}, {"measurement": "inhibition zone (IZ)", "setting": "Bacillus subtilis", "value": 14.3, "unit": "mm"}]}, {"smiles": "O=C(Nc1ccccc1)c1cnn2c(-c3ccc(Cl)cc3)ccnc12", "values": [{"measurement": "inhibition zone (IZ)", "setting": "Staphylococcus aureus", "value": 17, "unit": "mm"}, {"measurement": "inhibition zone (IZ)", "setting": "Escherichia coli", "value": 10, "unit": "mm"}]}, {"smiles": "NC(=O)c1c(Nc2ccc(Br)cc2)nn2c3c(cnc12)CCC3", "values": [{"measurement": "inhibition zone (IZ)", "setting": "Pseudomonas aeruginosa", "value": 9, "unit": "mm"}, {"measurement": "inhibition zone (IZ)", "setting": "Escherichia coli", "value": 11, "unit": "mm"}, {"measurement": "inhibition zone (IZ)", "setting": "Bacillus subtilis", "value": 12, "unit": "mm"}]}, {"smiles": "NC(=O)c1c(Nc2ccccc2)nn2c(-c3ccc(F)cc3)ccnc12", "values": [{"measurement": "pIC50", "setting": "HepG2", "value": 4.14}]}, {"smiles": "O=C(Nc1ccccc1)c1cnn2c(-c3ccccc3)ccnc12", "values": [{"measurement": "inhibition zone (IZ)", "setting": "Staphylococcus aureus", "value": 10, "unit": "mm"}, {"measurement": "inhibition zone (IZ)", "setting": "Escherichia coli", "value": 10, "unit": "mm"}]}, {"smiles": "COc1ccc(Nc2nn3c(C)cc(C)nc3c2C(=O)Nc2ccccc2)c(OC)c1", "values": [{"measurement": "Activity", "setting": "[1]", "value": 0.5, "unit": "%"}]}, {"smiles": "NC(=O)c1c(Nc2ccc(Cl)cc2)nn2c(-c3ccccc3)ccnc12", "values": [{"measurement": "pIC50", "setting": "HepG2", "value": 4.14}]}, {"smiles": "COc1ccc(Nc2nn3c(O)cc(-c4ccccc4)nc3c2C(=O)Nc2ccc(C)cc2)c(OC)c1", "values": [{"measurement": "Activity", "setting": "[1]", "value": 0.5, "unit": "%"}]}, {"smiles": "CCOC(=O)c1cnc2c(C(=O)Nc3ccccc3)cnn2c1C", "values": [{"measurement": "inhibition zone (IZ)", "setting": "Escherichia coli", "value": 10, "unit": "mm"}]}, {"smiles": "O=C(c1cc(-c2ccccc2)n2nc(-c3ccccc3)cc2n1)N1CCN(C(=O)c2ccccc2NCc2ccco2)CC1", "values": [{"measurement": "pIC50", "setting": "SiHa", "value": 5.71}]}, {"smiles": "COc1ccc(-c2cc(-c3nn4cc(-c5ccncc5)cnc4c3S(=O)(=O)c3ccc(OC)cc3)on2)cc1", "values": [{"measurement": "pIC50", "setting": "SiHa", "value": 5.75}]}, {"smiles": "NC(=O)c1c(Nc2ccc(Cl)cc2)nn2c(-c3ccc(F)cc3)ccnc12", "values": [{"measurement": "pIC50", "setting": "HepG2", "value": 4.14}]}, {"smiles": "COc1ccc(-c2cc(C(=O)N3CCN(C(=O)c4ccccc4NCc4cc(OC)c(OC)c(OC)c4)CC3)nc3cc(-c4ccccc4)nn23)cc1", "values": [{"measurement": "pIC50", "setting": "HeLa", "value": 5.72}]}, {"smiles": "COc1cccc2c1C(=O)c1c(O)c3c(c(O)c1C2=O)C[C@@](O)(C(=O)CO)C[C@@H]3O[C@H]1C[C@H](N)[C@H](O)[C@H](C)O1", "note": "[DOXORUBICIN]", "values": [{"measurement": "pIC50", "setting": "HepG2", "value": 4.09}, {"measurement": "IC50", "setting": "HCT-116", "value": 1.6, "unit": "µg/mL"}]}, {"smiles": "Cc1ccc(Nc2nn3c(-c4ccc(Cl)cc4)ccnc3c2C(N)=O)cc1", "values": [{"measurement": "pIC50", "setting": "HepG2", "value": 4.14}]}, {"smiles": "CC1(C)CC(=O)c2cnc3c(C(N)=O)c(Nc4ccccc4)nn3c2C1", "values": [{"measurement": "pIC50", "setting": "HepG2", "value": 4.11}, {"measurement": "pIC50", "setting": "MCF7", "value": 4.18}]}, {"smiles": "COc1cc(CNc2ccccc2C(=O)N2CCN(C(=O)c3cc(-c4ccc(C)cc4)n4nc(-c5ccccc5)cc4n3)CC2)cc(OC)c1OC", "values": [{"measurement": "pIC50", "setting": "HeLa", "value": 5.74}]}, {"smiles": "COc1ccc(Nc2nn3c(-c4cccs4)ccnc3c2C(N)=O)cc1", "values": [{"measurement": "pIC50", "setting": "HepG2", "value": 4.14}]}, {"smiles": "COc1ccc(Nc2nn3c(-c4ccccc4)cc(-c4ccccc4)nc3c2C(=O)Nc2ccc(C)cc2)c(OC)c1", "values": [{"measurement": "Activity", "setting": "[1]", "value": 0.5, "unit": "%"}]}, {"smiles": "NC(=O)c1c(Nc2ccc(Cl)cc2)nn2c(-c3ccc(Br)cc3)ccnc12", "values": [{"measurement": "pIC50", "setting": "HepG2", "value": 4.14}]}, {"smiles": "COc1ccc(NC(=O)c2c(Nc3ccc(OC)cc3OC)nn3c(C)cc(C)nc23)c(OC)c1", "values": [{"measurement": "Activity", "setting": "[1]", "value": 0.5, "unit": "%"}]}, {"smiles": "COc1ccc(Nc2nn3c(-c4ccc(Br)cc4)ccnc3c2C(N)=O)cc1", "values": [{"measurement": "pIC50", "setting": "HepG2", "value": 4.15}, {"measurement": "pIC50", "setting": "MCF7", "value": 4.19}]}, {"smiles": "COc1ccc(Nc2nn3c(C)cc(C)nc3c2C(N)=O)c(OC)c1", "values": [{"measurement": "Activity", "setting": "[1]", "value": 0.5, "unit": "%"}]}, {"smiles": "Cc1ccc(Nc2nn3c(-c4ccc(Br)cc4)ccnc3c2C(N)=O)cc1", "values": [{"measurement": "pIC50", "setting": "HepG2", "value": 4.14}]}, {"smiles": "NC(=O)c1c(Nc2ccc(Cl)cc2)nn2c(-c3ccc(Cl)cc3)ccnc12", "values": [{"measurement": "pIC50", "setting": "HepG2", "value": 4.14}]}, {"smiles": "CCNc1nn2c(-c3ccc(Br)cc3)ccnc2c1C(N)=O", "values": [{"measurement": "inhibition zone (IZ)", "setting": "Staphylococcus aureus", "value": 9, "unit": "mm"}]}, {"smiles": "COc1ccc(-c2cc(C(=O)N3CCN(C(=O)c4ccccc4NCc4ccco4)CC3)nc3cc(-c4ccccc4)nn23)cc1", "values": [{"measurement": "pIC50", "setting": "HeLa", "value": 5.76}]}, {"smiles": "COc1ccc(-c2ccnc3c(C(=O)Nc4ccccc4)cnn23)cc1", "values": [{"measurement": "inhibition zone (IZ)", "setting": "Escherichia coli", "value": 10, "unit": "mm"}]}, {"smiles": "COc1cc(-c2cc(C(=O)N3CCN(C(=O)c4ccccc4NCc4cccs4)CC3)nc3cc(-c4ccccc4)nn23)cc(OC)c1OC", "values": [{"measurement": "pIC50", "setting": "SiHa", "value": 5.81}, {"measurement": "pIC50", "setting": "HeLa", "value": 5.84}]}, {"smiles": "O=C(c1cc(-c2ccccc2)n2nc(-c3ccccc3)cc2n1)N1CCN(C(=O)c2ccccc2NCc2cccc3c2OCO3)CC1", "values": [{"measurement": "pIC50", "setting": "HeLa", "value": 5.71}]}, {"smiles": "COc1ccc(NC(=O)c2c(Nc3ccc(OC)cc3OC)nn3c(-c4ccccc4)cc(-c4ccccc4)nc23)c(OC)c1", "values": [{"measurement": "Activity", "setting": "[1]", "value": 0.5, "unit": "%"}]}, {"smiles": "CC[C@H](CO)Nc1nc(NCc2ccccc2)c2ncn(C(C)C)c2n1", "note": "[SELICICLIB]", "values": [{"measurement": "pIC50", "setting": "SiHa", "value": 5.57}, {"measurement": "pIC50", "setting": "HeLa", "value": 5.66}]}, {"smiles": "COc1ccc(-c2cc(C(=O)N3CCN(C(=O)c4ccccc4NCc4cccs4)CC3)nc3cc(-c4ccccc4)nn23)cc1OC", "values": [{"measurement": "pIC50", "setting": "SiHa", "value": 5.74}, {"measurement": "pIC50", "setting": "HeLa", "value": 5.70}]}, {"smiles": "O=C(Nc1ccccc1-c1ccnc2c(C(=O)NCc3ccccc3Cl)cnn12)c1ccc(Cl)c(Cl)c1", "values": [{"measurement": "pIC50", "setting": "HeLa", "value": 5.04}]}]}
